These are literature values, as cited in patent publication US8808764B2, “Methods and compositions for increasing growth hormones” (Quality IP Holdings, Inc., priority 2012, dated 2014).

Data set [1] has as its system hGH.
Data set [2] relates to GH. To be noted: subcutaneous injection of 0.06 IU in GH deficient subjects.

Some results are limits rather than exact numbers.

`N=C(N)NCCC[C@H](N)C(=O)O` [arginine]: in data set [1] (30 g, intravenous, in males), the “elevation of serum hGH levels” value is recorded as 8.6 fold. Also, the “increase in hGH levels” value in data set [1] (intravenous infusion of 183 mg/kg body weight in females) is given as no less than 20 fold.
As to “HGH: human growth hormone given by subcutaneous injection to GH deficient subjects”, the “mean level of GH reached” value in data set [2] is recorded as 0.4 ng/mL.
